Measurements as given in the supplement of paper PMC10307832.

What was measured:
Experiment in all cases: relative viability (nuclei count vs DMSO), 5 days (fraction); higher = more cells survive
[1] = compound: C1CC(C1)(C(=O)O)C(=O)O.[NH2-].[NH2-].[Pt+2] [Carboplatin] + CC(=O)Nc1cccc(-n2c(=O)n(C3CC3)c(=O)c3c(Nc4ccc(I)cc4F)n(C)c(=O)c(C)c32)c1 [Trametinib] (partner 0.02 µM)
Outline: (§1)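 Nuclei were stained with Hoechst during a one-step fixation (final 0.05% Triton X-100, 1% formaldehyde, 1 ug/ml Hoechst) carried out 5 days after dosing, then counted on 4× images. The cells, lung cancer lines in 1536-well plates, had been dosed by pin tool the day after seeding with one drug alone or a fixed anchor-drug dose plus five library-drug doses (not always all listed) in √10 steps. Relative viability is the nuclei count in treated wells divided by that in vehicle wells, and each value is the median of duplicate plates.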

[2] = compound: CC[C@H](C)N1C=C(C2=C(C=C(C=C21)C3=CN=C(C=C3)N4CCNCC4)C(=O)NCC5=C(C=C(NC5=O)C)C)C [GSK126] + CC(=O)Nc1cccc(-n2c(=O)n(C3CC3)c(=O)c3c(Nc4ccc(I)cc4F)n(C)c(=O)c(C)c32)c1 [Trametinib] (partner 0.02 µM)
Outline: as §1

[3] = compound: NS(=O)(=O)OC[C@@H]1C[C@@H](n2ccc3c(N[C@H]4CCc5ccccc54)ncnc32)C[C@@H]1O [MLN4924] + NC(=O)Nc1cc(-c2cccc(F)c2)sc1C(=O)N[C@H]1CCCNC1 [AZD7762] (partner 0.2 µM)
Outline: as §1

[4] = compound: NS(=O)(=O)OC[C@@H]1C[C@@H](n2ccc3c(N[C@H]4CCc5ccccc54)ncnc32)C[C@@H]1O [MLN4924] + O=C(c1cc(Cc2n[nH]c(=O)c3ccccc23)ccc1F)N1CCN(C(=O)C2CC2)CC1 [Olaparib] (partner 8 µM)
Outline: as §1

| Cell Line | relative viability ([1]; first compound 0.08 µM) | relative viability ([1]; first compound 0.253 µM) | relative viability ([1]; first compound 0.8 µM) | relative viability ([1]; first compound 2.53 µM) | relative viability ([1]; first compound 8 µM) | relative viability ([2]; first compound 0.08 µM) | relative viability ([2]; first compound 0.253 µM) | relative viability ([2]; first compound 0.8 µM) | relative viability ([2]; first compound 2.53 µM) | relative viability ([2]; first compound 8 µM) | relative viability ([3]; first compound 0.04 µM) | relative viability ([3]; first compound 0.1265 µM) | relative viability ([3]; first compound 0.4 µM) | relative viability ([3]; first compound 1.265 µM) | relative viability ([3]; first compound 4 µM) | relative viability ([4]; first compound 0.04 µM) | relative viability ([4]; first compound 0.1265 µM) | relative viability ([4]; first compound 0.4 µM) | relative viability ([4]; first compound 1.265 µM) | relative viability ([4]; first compound 4 µM) |
| --- | --- | --- | --- | --- | --- | --- | --- | --- | --- | --- | --- | --- | --- | --- | --- | --- | --- | --- | --- | --- |
| HCC-366 | 0.406 | 0.43 | 0.372 | 0.269 | 0.179 | 0.391 | 0.357 | 0.343 | 0.309 | 0.337 | 0.312 | 0.56 | 0.526 | 0.297 | 0.0472 | 0.341 | 0.352 | 0.272 | 0.0846 | 0.0262 |
| HCC-827 | 0.579 | 0.517 | 0.557 | 0.497 | 0.57 | 0.478 | 0.496 | 0.54 | 0.635 | 0.531 | 0.687 | 0.556 | 0.374 | 0.195 | 0.151 | 0.637 | 0.412 | 0.34 | 0.164 | 0.141 |
| HOP-62 | 0.393 | 0.359 | 0.385 | 0.393 | 0.363 | 0.406 | 0.411 | 0.357 | 0.383 | 0.375 | 0.438 | 0.263 | 0.111 | 0.051 | 0.0648 | 0.205 | 0.303 | 0.0801 | 0.0633 | 0.0555 |
| IA-LM | – | – | – | – | – | – | – | – | – | – | – | – | – | – | – | 0.458 | 0.297 | 0.227 | 0.0664 | 0.0734 |
| LC-2-ad | 0.91 | 0.934 | 0.923 | 0.882 | 0.8 | 0.926 | 0.9 | 0.91 | 0.885 | 0.957 | 0.376 | 0.9 | 0.837 | 0.376 | 0.236 | 0.68 | 0.53 | 0.335 | 0.269 | 0.197 |
| LCLC-97TM1 | 0.236 | 0.216 | 0.212 | 0.228 | 0.26 | 0.205 | 0.2 | 0.204 | 0.211 | 0.209 | 0.338 | 0.22 | 0.0891 | 0.0605 | 0.0696 | 0.282 | 0.138 | 0.0947 | 0.0518 | 0.0597 |
| LCLC-103H | 0.703 | 0.703 | 0.68 | 0.689 | 0.654 | 0.71 | 0.708 | 0.647 | 0.64 | 0.725 | 0.831 | 0.833 | 0.7 | 0.239 | 0.247 | 0.717 | 0.615 | 0.665 | 0.292 | 0.293 |
| LK-2 | 0.772 | 0.973 | 0.624 | 0.58 | 0.846 | 0.861 | 0.817 | 0.779 | 0.857 | 0.575 | 0.329 | 0.307 | 0.309 | 0.124 | 0.155 | 0.4 | 0.312 | 0.234 | 0.151 | 0.137 |
| LOU-NH91 | 0.786 | 0.792 | 0.763 | 0.803 | 0.775 | 0.813 | 0.771 | 0.765 | 0.821 | 0.761 | 0.785 | 0.95 | 0.823 | 0.645 | 0.459 | 0.887 | 0.844 | 0.724 | 0.47 | 0.48 |
| NCI-H520 | 0.856 | 0.812 | 0.724 | 0.766 | 0.484 | 0.748 | 0.665 | 0.563 | 0.807 | 0.817 | – | – | – | – | – | 0.273 | 0.217 | 0.24 | 0.151 | 0.167 |
| NCI-H661 | 0.58 | 0.547 | 0.591 | 0.554 | 0.539 | 0.632 | 0.548 | 0.523 | 0.596 | 0.687 | – | – | – | – | – | 0.614 | 0.575 | 0.39 | 0.31 | 0.372 |
| NCI-H1299 | – | – | – | – | – | – | – | – | – | – | – | – | – | – | – | 0.912 | 0.667 | 0.416 | 0.201 | 0.172 |
| NCI-H1650 | 0.623 | 0.585 | 0.573 | 0.522 | 0.389 | 0.631 | 0.656 | 0.428 | 0.578 | 0.654 | – | – | – | – | – | 0.609 | 0.616 | 0.34 | 0.175 | 0.166 |
| NCI-H1703 | – | – | – | – | – | – | – | – | – | – | 0.135 | 0.126 | 0.111 | 0.11 | 0.123 | 0.332 | 0.174 | 0.156 | 0.145 | 0.135 |
| NCI-H2009 | 0.346 | 0.295 | 0.243 | 0.249 | 0.238 | 0.332 | 0.233 | 0.286 | 0.348 | 0.321 | – | – | – | – | – | 0.449 | 0.382 | 0.143 | 0.146 | 0.0556 |
| NCI-H2023 | 0.599 | 0.633 | 0.542 | 0.343 | 0.163 | 0.718 | 0.6 | 0.646 | 0.533 | 0.603 | – | – | – | – | – | 0.397 | 0.221 | 0.12 | 0.0617 | 0.0657 |
| NCI-H2228 | 0.678 | 0.575 | 0.616 | 0.543 | 0.344 | 0.677 | 0.502 | 0.407 | 0.606 | 0.513 | – | – | – | – | – | 0.486 | 0.532 | 0.279 | 0.109 | 0.162 |
| SK-LU-1 | 0.584 | 0.525 | 0.485 | 0.441 | 0.356 | 0.519 | 0.524 | 0.485 | 0.816 | 0.486 | – | – | – | – | – | 0.493 | 0.433 | 0.256 | 0.157 | 0.172 |
| SK-MES-1 | 0.645 | 0.469 | 0.524 | 0.556 | 0.565 | 0.573 | 0.6 | 0.539 | 0.491 | 0.515 | – | – | – | – | – | 0.653 | 0.545 | 0.305 | 0.158 | 0.234 |
| SW 1573 | 0.677 | 0.539 | 0.528 | 0.555 | 0.387 | 0.57 | 0.618 | 0.596 | 0.587 | 0.622 | – | – | – | – | – | 0.486 | 0.303 | 0.108 | 0.0465 | 0.07 |
